# Experiments:
# wheat, winter = experiment: Test C postemergence; assay type: in vivo, Triticum aestivum
# Source text: (§1) Seeds of plant species selected from blackgrass (Alopecurus myosuroides), Italian ryegrass (Lolium multiflorum), wheat, winter (winter wheat, Triticum aestivum), galium (catchweed bedstraw, Galium aparine), corn (Zea mays), large (Lg) crabgrass (Digitaria sanguinalis), giant foxtail (Setaria faberii), johnsongrass (Sorghum halepense), lambsquarters (Chenopodium album), morningglory (Ipomoea coccinea), yellow nutsedge (Cyperus esculentus), pigweed (Amaranthus retroflexus), ragweed (common ragweed, Ambrosia elatior), soybean (Glycine max), barnyardgrass (Echinochloa crus-galli), oilseed rape (Brassica napus), waterhemp (common waterhemp, Amaranthus rudis), kochia (Kochia scoparia), wild oat (Avena fatua), surinam grass (Brachiaria decumbens), foxtail, green (green foxtail, Setaria viridis), goosegrass (Eleusine indica), bromegrass, downy (downy bromegrass, Bromus tectorum), nightshade (eastern black nightshade, Solanum ptycanthum), cocklebur (common cocklebur, Xanthium strumarium), cupgrass, woolly (woolly cupgrass, Eriochloa villosa), bermudagrass (Cynodon dactylon), sunflower, (common oilseed sunflower, Helianthus annuus), Russian thistle (Salsola kali), and velvetleaf (Abutilon theophrasti) were planted into a blend of loam soil and sand and treated preemergence with test chemicals formulated in a non-phytotoxic solvent mixture which included a surfactant.
# (§2) At the same time, plants selected from these crop and weed species and also barley, winter (winter barley, Hordeum vulgare), windgrass (Apera spica-venti), chickweed (common chickweed, Stellaria media), deadnettle (henbit deadnettle, Lamium amplexicaule), and canarygrass (littleseed canarygrass, Phalaris minor) were planted in pots containing Redi-Earth® planting medium (Scotts Company, 14111 Scottslawn Road, Marysville, Ohio 43041) comprising spaghnum peat moss, vermiculite, wetting agent and starter nutrients and treated with postemergence applications of test chemicals formulated in the same manner. Plants ranged in height from 2 to 18 cm (1- to 4-leaf stage) for postemergence treatments. Treated plants and controls were maintained in a greenhouse for 13 to 15 days, after which time all species were compared to controls and visually evaluated. Plant response ratings, summarized in Table C, are based on a scale of 0 to 100 where 0 is no effect and 100 is complete control. A dash (-) response means no test result.
# lambsquarters = experiment: Test C postemergence; assay type: in vivo, Chenopodium album
# Source text: as §1, §2
# barnyardgrass = experiment: Test B flooded paddy test; assay type: in vivo, Echinochloa crus-galli; details: Flood, 250 g ai/ha, 0 to 100 scale where 0 is no effect and 100 is complete control
# How it was run: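 Visual ratings on a 0 to 100 scale, where 100 means complete control, compared treated plants with controls after 13 to 15 days in a greenhouse. Treatment went into paddy water 3 cm deep over the soil, applied to plants at the 2-leaf stage.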
# large (Lg) crabgrass = experiment: Test A postemergence; assay type: in vivo, Digitaria sanguinalis
# How it was run: (§3)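 Compounds in non-phytotoxic solvent with surfactant applied as soil spray preemergence, or postemergence to plants 2-10 cm at one- to two-leaf stage, in loam/sand. After approximately 10 days in greenhouse, injury rated visually versus untreated controls, 0 (no effect) to 100 (complete control).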
# morningglory = experiment: Test C postemergence; assay type: in vivo, Ipomoea coccinea
# Source text: as §1, §2
# ragweed = experiment: Test C postemergence; assay type: in vivo, Ambrosia elatior
# Source text: as §1, §2
# soybean = experiment: Test C postemergence; assay type: in vivo, Glycine max
# Source text: as §1, §2
# velvetleaf = experiment: Test A postemergence; assay type: in vivo, Abutilon theophrasti
# How it was run: as §3
# oilseed rape = experiment: Test C postemergence; assay type: in vivo, Brassica napus; details: for Plant response rating (0 to 100), Oilseed Rape: postemergence; for Plant response rating, Oilseed Rape: Postemergence, scale 0 to 100 (0 no effect, 100 complete control)
# Source text: as §1, §2
# [1] = Postemergence, 31 g ai/ha, scale 0 to 100 (0 no effect, 100 complete control), 13 to 15 days
# [2] = Postemergence, 62 g ai/ha, scale 0 to 100 (0 no effect, 100 complete control)
# [3] = 125 g ai/ha, 0 to 100 scale where 0 is no effect and 100 is complete control
# [4] = 500 g ai/ha, 0 to 100 scale, 0 no effect, 100 complete control
smiles,measurement,setting,value
"Clc1cnn(-c2ccccc2Oc2ncc(Br)cn2)c1 [Compound 5, 5-bromo-2-[2-(4-chloro-1H-pyrazol-1-yl)phenoxy]pyrimidine]",plant injury at 125 g/ha,"wheat, winter; Triticum aestivum, post-emergence, 125 g ai/ha, postemergence, read-out: Plant response rating (0 to 100), Wheat",10%
same,plant injury at 250 g/ha,"wheat, winter; Triticum aestivum, post-emergence, 250 g ai/ha, postemergence, read-out: Plant response rating (0 to 100), Wheat",40%
same,plant injury at 31 g/ha,"wheat, winter; Triticum aestivum, post-emergence, Postemergence, 31 g ai/ha, scale 0 to 100 (0 no effect, 100 complete control), 13 to 15 days, read-out: Plant response rating, Wheat",0%
same,plant injury at 62 g/ha,"wheat, winter; Triticum aestivum, post-emergence, Postemergence, 62 g ai/ha, scale 0 to 100 (0 no effect, 100 complete control), read-out: Plant response rating, Wheat",5%
same,pest or weed control at 125 g/ha,"lambsquarters; Chenopodium album, post-emergence, 125 g ai/ha, postemergence, read-out: Plant response rating (0 to 100), Lambsquarters",98%
same,pest or weed control at 250 g/ha,"lambsquarters; Chenopodium album, post-emergence, 250 g ai/ha, postemergence, read-out: Plant response rating (0 to 100), Lambsquarters",98%
same,pest or weed control at 31 g/ha,"lambsquarters; Chenopodium album, post-emergence, Postemergence, 31 g ai/ha, scale 0 to 100 (0 no effect, 100 complete control), 13 to 15 days, read-out: Plant response rating, Lambsquarters",80%
same,pest or weed control at 62 g/ha,"lambsquarters; Chenopodium album, post-emergence, Postemergence, 62 g ai/ha, scale 0 to 100 (0 no effect, 100 complete control), read-out: Plant response rating, Lambsquarters",95%
same,pest or weed control at 250 g/ha,"barnyardgrass; Echinochloa crus-galli, read-out: Plant response rating, Barnyardgrass",0%
same,pest or weed control at 125 g/ha,"large (Lg) crabgrass; Digitaria sanguinalis, post-emergence, 240 h, 125 g ai/ha, 0 to 100 scale where 0 is no effect and 100 is complete control, read-out: Plant response rating, Crabgrass, Large",30%
same,pest or weed control at 500 g/ha,"large (Lg) crabgrass; Digitaria sanguinalis, post-emergence, 240 h, 500 g ai/ha, 0 to 100 scale, 0 no effect, 100 complete control, read-out: Plant response rating Crabgrass, Large",80%
same,pest or weed control at 125 g/ha,"morningglory; Ipomoea, post-emergence, 125 g ai/ha, postemergence, read-out: Plant response rating (0 to 100), Morningglory",60%
same,pest or weed control at 250 g/ha,"morningglory; Ipomoea, post-emergence, 250 g ai/ha, postemergence, read-out: Plant response rating (0 to 100), Morningglory",90%
same,pest or weed control at 31 g/ha,"morningglory; Ipomoea, post-emergence, Postemergence, 31 g ai/ha, scale 0 to 100 (0 no effect, 100 complete control), 13 to 15 days, read-out: Plant response rating, Morningglory",40%
same,pest or weed control at 62 g/ha,"morningglory; Ipomoea, post-emergence, Postemergence, 62 g ai/ha, scale 0 to 100 (0 no effect, 100 complete control), read-out: Plant response rating, Morningglory",60%
same,pest or weed control at 125 g/ha,"ragweed; Ambrosia artemisiifolia, post-emergence, 125 g ai/ha, postemergence, read-out: Plant response rating (0 to 100), Ragweed",55%
same,pest or weed control at 250 g/ha,"ragweed; Ambrosia artemisiifolia, post-emergence, 250 g ai/ha, postemergence, read-out: Plant response rating (0 to 100), Ragweed",85%
same,pest or weed control at 31 g/ha,"ragweed; Ambrosia artemisiifolia, post-emergence, Postemergence, 31 g ai/ha, scale 0 to 100 (0 no effect, 100 complete control), 13 to 15 days, read-out: Plant response rating, Ragweed",15%
same,pest or weed control at 62 g/ha,"ragweed; Ambrosia artemisiifolia, post-emergence, Postemergence, 62 g ai/ha, scale 0 to 100 (0 no effect, 100 complete control), read-out: Plant response rating, Ragweed",45%
same,"Soybean plant response rating (crop injury, 0-100 scale) at 125 g/ha","soybean; Glycine max, post-emergence, 125 g ai/ha, postemergence, read-out: Plant response rating (0 to 100), Soybean",95%
same,"Soybean plant response rating (crop injury, 0-100 scale) at 250 g/ha","soybean; Glycine max, post-emergence, 250 g ai/ha, postemergence",95%
same,"Soybean plant response rating (crop injury, 0-100 scale) at 31 g/ha","soybean; Glycine max, post-emergence, Postemergence, 31 g ai/ha, scale 0 to 100 (0 no effect, 100 complete control), 13 to 15 days",55%
same,"Soybean plant response rating (crop injury, 0-100 scale) at 62 g/ha","soybean; Glycine max, post-emergence, Postemergence, 62 g ai/ha, scale 0 to 100 (0 no effect, 100 complete control)",90%
same,pest or weed control at 125 g/ha,"velvetleaf; Abutilon theophrasti, post-emergence, 240 h, 125 g ai/ha, 0 to 100 scale where 0 is no effect and 100 is complete control, read-out: Plant response rating, Velvetleaf",100%
same,pest or weed control at 500 g/ha,"velvetleaf; Abutilon theophrasti, post-emergence, 240 h, 500 g ai/ha, 0 to 100 scale, 0 no effect, 100 complete control, read-out: Plant response rating Velvetleaf",100%
Fc1cnc(Oc2ccccc2-n2cc(C(F)(F)F)cn2)nc1 [Compound 47],"Plant response rating (0 to 100), Wheat","wheat, winter; 125 g ai/ha, postemergence",0
same,"Plant response rating (0 to 100), Wheat","wheat, winter; 250 g ai/ha, postemergence",0
same,"Plant response rating, Wheat","wheat, winter; [1]",0
same,"Plant response rating, Wheat","wheat, winter; [2]",0
same,"Plant response rating (0 to 100), Lambsquarters","lambsquarters; 125 g ai/ha, postemergence",60
same,"Plant response rating (0 to 100), Lambsquarters","lambsquarters; 250 g ai/ha, postemergence",90
same,"Plant response rating, Lambsquarters",lambsquarters; [1],30
same,"Plant response rating, Lambsquarters",lambsquarters; [2],45
same,"Plant response rating, Barnyardgrass",barnyardgrass,10
same,"Plant response rating, Crabgrass, Large",large (Lg) crabgrass; [3],70
same,"Plant response rating, Crabgrass, Large",large (Lg) crabgrass; [4],100
same,"Plant response rating (0 to 100), Oilseed Rape",oilseed rape; 125 g ai/ha,55
same,"Plant response rating (0 to 100), Oilseed Rape",oilseed rape; 250 g ai/ha,55
same,"Plant response rating, Oilseed Rape","oilseed rape; 31 g ai/ha, 13 to 15 days",15
same,"Plant response rating, Oilseed Rape",oilseed rape; 62 g ai/ha,50
same,"Plant response rating (0 to 100), Morningglory","morningglory; 125 g ai/ha, postemergence",70
same,"Plant response rating (0 to 100), Morningglory","morningglory; 250 g ai/ha, postemergence",75
same,"Plant response rating, Morningglory",morningglory; [1],20
same,"Plant response rating, Morningglory",morningglory; [2],70
same,"Plant response rating (0 to 100), Ragweed","ragweed; 125 g ai/ha, postemergence",50
same,"Plant response rating (0 to 100), Ragweed","ragweed; 250 g ai/ha, postemergence",85
same,"Plant response rating, Ragweed",ragweed; [1],20
same,"Plant response rating, Ragweed",ragweed; [2],50
same,"Plant response rating (0 to 100), Soybean","soybean; 125 g ai/ha, postemergence",65
same,"Plant response rating (0 to 100), Soybean","soybean; 250 g ai/ha, postemergence",65
same,"Plant response rating, Soybean",soybean; [1],35
same,"Plant response rating, Soybean",soybean; [2],45
same,"Plant response rating, Velvetleaf",velvetleaf; [3],100
same,"Plant response rating, Velvetleaf",velvetleaf; [4],100

# Source: patent US9695155B2, “Herbicidal substituted pyrimidinyloxy benzene compounds” (E. I. DU PONT DE NEMOURS AND COMPANY, priority 2013, dated 2017)
